In patent publication US11147795B2, “Neuroprotective compounds and methods of use” (ARIZONA BOARD OF REGENTS ON BEHALF OF THE UNIVERSITY OF …, priority 2014, dated 2021):

System: larvae expressing TDP-43 in motor neurons
Test: Larval turning assay (locomotor function)
Format: in vivo, Drosophila
Settings: for locomotor function measured by larval turning assays: TDP-43 expressed in motor neurons, FIGS. 1-3; for locomotor function: Student's t-test, N>20 larvae/genotype
Procedure: Drosophila genetics. TDP-43 was expressed in motor neurons using the GAL4-UAS bipartite expression system. D42 GAL4 was used as an expression driver and UAS-TDP-43 YFP trasgenics were used as responder lines (Estes, et al., 2011, Hum. Mol. Genet).
Locomotor function. Locomotion was assessed using quantitative larval turning assays. Crosses were carried out at 25° C. and wandering third instar larvae were placed on a grape juice plate at room temperature. After a 30 second acclimation period, larvae were gently turned ventral side up. They were observed until they turned over (dorsal side up) and began making a forward motion. The time it took to complete this task was recorded for at least 20 larvae per genotype.
Statistical analyses. Student's t-tests were performed to determine statistical significance.

[1] = larvae expressing TDPG298S in motor neurons
[2] = larvae expressing TDPWT in motor neurons

SMILES	locomotor function measured by larval turning assays	locomotor function [1]	locomotor function [2]
CCOC(=O)C1=CCN([S@+]([O-])C(C)(C)C)[C@@H]1C[C@@H](C)CCC=C(C)C [CH-I-108]	significant improvement of locomotor function	improves locomotor function	improves locomotor function
CCOC(=O)C1=CCN([S@@+]([O-])C(C)(C)C)[C@H]1c1ccsc1 [CH-III-31]	significant improvement of locomotor function	improves locomotor function	improves locomotor function
COc1cc2c(C(=O)C(F)(F)F)c(C(F)(F)F)[nH]c2cc1F [EV-3-298]	significant improvement of locomotor function	improves locomotor function	improves locomotor function
